Reference: PMC3853768 (Molecular Pain, 2013)
Entries after “also recorded” stand apart in the source; their conditions may differ. Positions of bridges follow the written chain, without caps; N, C: chain ends. Residues, ends and D or L forms follow the SMILES beside them.

Tests used:
[1] = molecular target: T1, N-type calcium currents (Cav2.2), mouse DRG neurons (Mus musculus, UniProt O55017); assay type: cell-based
[2] = tested on: excitatory monosynaptic transmission in the dorsal horn of the spinal cord; details: cited from earlier work
naïve mice (C57Bl/6j) [3] = details: mouse, in vivo, sc, 2 mg/kg
[4] = molecular target: T1, N-type calcium currents (Cav2.2), mouse DRG neurons; assay type: cell-based; remark: listed apart in the source
Cav2.2 channel = details: cited from earlier work
naïve mice (C57Bl/6j) [5] = details: mouse, in vivo, sc, 2 mg/kg; remark: listed apart in the source
[6] = tested on: N-type calcium channels with auxiliary subunits; details: cited from earlier work
mice (C57 Bl6) = details: mouse, in vivo, sc
[7] = tested on: CFA-injected mice (C57 Bl6); details: mouse, in vivo
rat = details: in vivo, iv; cited from earlier work
[8] = tested on: CFA-injected mice (C57 Bl6); details: mouse, in vivo; remark: listed apart in the source
[9] = tested on: N-type VGCCs over the P/Q-type (Cav2.1); details: cited from earlier work

T1 sequence (O55017 whole entry): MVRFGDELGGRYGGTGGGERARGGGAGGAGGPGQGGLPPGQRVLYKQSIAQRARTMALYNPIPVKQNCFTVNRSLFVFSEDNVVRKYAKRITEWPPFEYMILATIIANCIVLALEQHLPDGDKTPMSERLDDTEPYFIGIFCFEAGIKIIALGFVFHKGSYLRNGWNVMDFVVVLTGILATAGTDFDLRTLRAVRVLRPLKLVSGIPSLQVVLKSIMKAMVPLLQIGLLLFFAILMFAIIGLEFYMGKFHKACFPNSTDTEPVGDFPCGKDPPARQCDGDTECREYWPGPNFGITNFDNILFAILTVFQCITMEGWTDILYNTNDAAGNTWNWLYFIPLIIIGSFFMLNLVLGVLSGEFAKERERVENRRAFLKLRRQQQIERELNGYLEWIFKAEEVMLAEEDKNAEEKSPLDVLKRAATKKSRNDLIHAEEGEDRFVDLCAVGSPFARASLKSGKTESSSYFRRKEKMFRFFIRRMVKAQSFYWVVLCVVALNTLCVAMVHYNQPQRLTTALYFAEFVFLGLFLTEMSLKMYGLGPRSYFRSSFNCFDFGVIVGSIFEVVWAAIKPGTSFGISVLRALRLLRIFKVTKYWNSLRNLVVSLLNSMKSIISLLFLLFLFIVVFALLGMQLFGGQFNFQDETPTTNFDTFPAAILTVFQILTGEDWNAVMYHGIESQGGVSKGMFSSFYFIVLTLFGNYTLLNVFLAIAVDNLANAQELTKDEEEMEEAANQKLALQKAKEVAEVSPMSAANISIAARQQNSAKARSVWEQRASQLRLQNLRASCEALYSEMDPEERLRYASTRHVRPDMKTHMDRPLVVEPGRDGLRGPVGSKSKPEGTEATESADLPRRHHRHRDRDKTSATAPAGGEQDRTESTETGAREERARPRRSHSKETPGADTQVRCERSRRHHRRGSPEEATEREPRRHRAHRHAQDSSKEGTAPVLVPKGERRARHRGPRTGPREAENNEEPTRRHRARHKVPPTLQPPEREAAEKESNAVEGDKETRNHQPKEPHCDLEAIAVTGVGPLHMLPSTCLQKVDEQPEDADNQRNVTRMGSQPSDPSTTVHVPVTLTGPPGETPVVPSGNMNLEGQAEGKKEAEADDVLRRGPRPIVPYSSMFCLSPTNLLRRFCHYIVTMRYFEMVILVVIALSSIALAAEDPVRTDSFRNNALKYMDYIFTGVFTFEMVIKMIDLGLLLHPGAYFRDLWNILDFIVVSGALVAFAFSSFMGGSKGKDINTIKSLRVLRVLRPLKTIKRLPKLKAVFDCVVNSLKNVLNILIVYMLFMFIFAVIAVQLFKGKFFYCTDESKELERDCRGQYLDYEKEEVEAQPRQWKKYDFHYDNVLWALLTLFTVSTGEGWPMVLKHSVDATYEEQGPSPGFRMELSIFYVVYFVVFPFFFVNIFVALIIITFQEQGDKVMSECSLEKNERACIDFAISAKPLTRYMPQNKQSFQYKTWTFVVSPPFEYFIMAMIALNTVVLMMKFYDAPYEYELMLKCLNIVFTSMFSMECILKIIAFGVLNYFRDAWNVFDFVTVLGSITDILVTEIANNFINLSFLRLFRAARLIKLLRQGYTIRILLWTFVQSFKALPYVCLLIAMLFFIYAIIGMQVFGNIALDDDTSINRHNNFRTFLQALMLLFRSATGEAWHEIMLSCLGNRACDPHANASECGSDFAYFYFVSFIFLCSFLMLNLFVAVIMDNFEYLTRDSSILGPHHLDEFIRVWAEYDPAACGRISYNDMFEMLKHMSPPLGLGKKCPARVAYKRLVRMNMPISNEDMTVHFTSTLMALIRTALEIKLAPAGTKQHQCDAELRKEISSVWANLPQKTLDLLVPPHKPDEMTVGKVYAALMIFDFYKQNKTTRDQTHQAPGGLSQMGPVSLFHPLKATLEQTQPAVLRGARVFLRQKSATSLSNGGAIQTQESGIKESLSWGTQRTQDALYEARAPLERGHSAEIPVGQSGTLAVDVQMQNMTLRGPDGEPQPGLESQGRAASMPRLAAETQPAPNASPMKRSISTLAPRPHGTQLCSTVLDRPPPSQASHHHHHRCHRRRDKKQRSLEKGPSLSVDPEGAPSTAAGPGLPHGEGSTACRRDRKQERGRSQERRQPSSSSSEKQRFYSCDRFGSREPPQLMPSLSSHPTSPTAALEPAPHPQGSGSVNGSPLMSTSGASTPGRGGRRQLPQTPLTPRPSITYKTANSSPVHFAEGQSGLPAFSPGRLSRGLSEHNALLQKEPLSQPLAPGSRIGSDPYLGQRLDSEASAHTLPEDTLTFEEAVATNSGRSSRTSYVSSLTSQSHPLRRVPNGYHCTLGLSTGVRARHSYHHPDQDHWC

SMILES | maximal inhibition relative to CVID [1] | inhibition of excitatory monosynaptic transmission [2] | Grip strength, Peak tension (naïve mice (C57Bl/6j) [3]) | Grip strength, Tension/weight (naïve mice (C57Bl/6j) [3]) | reversibility of ICa block [4] | inhibition of Cav2.2 channel currents (Cav2.2 channel) | Rotarod performance, End rate (naïve mice (C57Bl/6j) [5]) | Rotarod performance, Time to fall (naïve mice (C57Bl/6j) [5]) | recovery from block in presence of β2a compared to β3 subunits [6] | side-effects after systemic administration (mice (C57 Bl6)) | ceiling effect [7] | rank order of potency to inhibit N-type calcium currents [1] | recovery from block, 30 min [4] | further results
CC(C)C[C@@H]1NC(=O)[C@H](CCCNC(=N)N)NC(=O)[C@@H]2CSSC[C@@H]3NC(=O)[C@H](CO)NC(=O)[C@H](C)NC(=O)CNC(=O)[C@H](CCCCN)NC(=O)CNC(=O)[C@H](CCCCN)NC(=O)[C@@H](N)CSSC[C@H](NC(=O)[C@H](CSSC[C@@H](C(N)=O)NC(=O)[C@H](CCCNC(=N)N)NC(=O)CNC1=O)NC(=O)[C@H](CC(=O)O)NC(=O)[C@H](Cc1ccc(O)cc1)NC(=O)[C@H](CO)NC(=O)[C@H]([C@@H](C)O)NC(=O)[C@H](CCCNC(=N)N)NC(=O)[C@H](CCCNC(=N)N)NC3=O)C(=O)N[C@@H]([C@@H](C)O)C(=O)NCC(=O)N[C@@H](CO)C(=O)N2 [CVIF] (H-CKGKGASCRRTSYDCCTGSCRLGRC-NH2; disulfide 1-16, 8-20, 15-25) | very similar to that of CVID | reversibly inhibited | 121 ± 7.7 g | 5.4 ± 0.4 | partially reversible; also recorded: Partial recovery | potently and reversibly inhibited | 17 ± 1.0 rpm | 36 ± 3.0 s | much greater | – | – | – | – | –
CSCC[C@@H]1NC(=O)[C@H](CC(C)C)NC(=O)[C@H](CCCCN)NC(=O)[C@H](CO)NC(=O)[C@@H]2CSSC[C@@H]3NC(=O)[C@H](CO)NC(=O)CNC(=O)[C@H](CO)NC(=O)[C@H](CSSC[C@H](N)C(=O)N[C@@H](CCCCN)C(=O)N[C@@H](CO)C(=O)N[C@@H](CCCCN)C(=O)NCC(=O)N[C@@H](C)C(=O)N[C@@H](CCCCN)C(=O)N2)NC(=O)[C@H](CSSC[C@@H](C(N)=O)NC(=O)[C@H](CCCNC(=N)N)NC(=O)CNC(=O)[C@H](C(C)C)NC(=O)[C@H]([C@@H](C)O)NC(=O)CNC(=O)[C@H](CO)NC3=O)NC(=O)[C@H](CC(=O)O)NC(=O)[C@H](Cc2ccc(O)cc2)NC1=O [CVID] (H-CKSKGAKCSKLMYDCCSGSCSGTVGRC-NH2; disulfide 1-16, 8-20, 15-27) | – | – | 121 ± 5.7 g | 5.7 ± 0.3 | completely irreversible; also recorded: no recovery was observed | – | 18 ± 1.4 rpm | 40 ± 4.1 s | – | not accompanied by side-effects such as motor deficits or sedation | reaching a ceiling effect | least potent | no recovery was observed | effect on automated von Frey and incapacitance measures: incapacitance [7]: both measures appeared to be sensitive to subcutaneous injection of CVID; also recorded: partially reversed; reversal of incapacitance at peak time of action (2 h) [7]: significant reversal; dose at which response reaches a ceiling ([7]; sc): 0.2 mg/kg; peak time of action ([7]; sc): 2 h; antihyperalgesic effects (rat): dose-dependent antihyperalgesic effects; cardiovascular side effects (rat): without serious cardiovascular side effects; effect on automated von Frey measure [8]: both measures appeared to be sensitive to subcutaneous injection of CVID; also recorded: partially reversed; Log [IC50] [1]: -7.12 ± 0.04; Maximal Inhibition of ICa [1]: 52 ± 2 % of total; block of high-voltage activated ICa [1]: block of high-voltage activated ICa; inhibition of total ICa (Figure 1B) [1]: about 40%; Recovery from block [4]: -1 ± 5 % of inhibition; selectivity for N-type VGCCs over P/Q-type [9]: higher selectivity for N-type VGCCs over the P/Q-type (Cav2.1); selectivity for N-type calcium channels [9]: high selectivity for N-type calcium channels; reversibility of inhibition (Cav2.2 channel): irreversible inhibition
C[C@@H]1NC(=O)CNC(=O)[C@H](CCCCN)NC(=O)CNC(=O)[C@H](CCCCN)NC(=O)[C@@H](N)CSSC[C@@H]2NC(=O)[C@@H]3CSSC[C@@H](C(N)=O)NC(=O)[C@H](CCCNC(=N)N)NC(=O)CNC(=O)[C@H](CO)NC(=O)[C@H](CCCNC(=N)N)NC(=O)[C@H](CSSC[C@H](NC(=O)[C@H](CO)NC1=O)C(=O)N[C@@H](CCCNC(=N)N)C(=O)N[C@@H](CCCNC(=N)N)C(=O)N[C@@H]([C@@H](C)O)C(=O)N[C@@H](CO)C(=O)N[C@@H](Cc1ccc(O)cc1)C(=O)N[C@@H](CC(=O)O)C(=O)N3)NC(=O)[C@H](CO)NC(=O)CNC(=O)[C@H]([C@@H](C)O)NC2=O [CVIE] | very similar to that of CVID | reversibly inhibited | 121 ± 6.9 g | 5.5 ± 0.3 | completely irreversible; also recorded: no recovery was observed | potently and reversibly inhibited | 17 ± 1.4 rpm | 36 ± 4.1 s | much greater | not accompanied by side-effects such as motor deficits or sedation | not seen with CVIE; also recorded: did not appear to reach a ceiling at the highest dose tested | most potent | no recovery was observed | overall significance of AUC data, doses ([7]; sc): 2.0 mg/kg; potency versus CVID (AUC) ([7]; sc): not CVID at any dose; reversal of incapacitance relative to another peptide (CVIE vs CVID) ([7]; sc): did not reveal any significant differences; also recorded: not significantly greater than CVID; potency at ICa inhibition compared to CVID [1]: more than ten-fold compared to CVID
